The conditions of assay [1]: 100 Russian patients with schizophrenia; cited from earlier work.
The subject of a further assay is GSK-3α/β phosphorylation. As to the kind of experiment: Western blot of phosphorylated GSK-3α/β (Ser-21/9) in transfected HEK-293T cells. It is filed as cell-based. On the procedure:
(A) Western blot analysis of phosphorylated GSK-3α/β levels in extract prepared from transfected HEK293T cells in the presence or absence of DA. Alpha-tubulin was used as loading controls. (B) Densitometric analysis. Data are analyzed by t-test. (C) Cyclic AMP analysis in transfected HEK293T cells in the presence or absence of Foskolin and Quinpirole. Data are analyzed by one-way ANOVA. Data are means±SEM. Numbers of samples per group (n) are indicated. CTRL: Control; DA: Dopamine.
Alpha-tubulin was used as loading controls. CTRL: Control; DA: Dopamine.
Currently, all studies related to D2R-mediated Akt/GSK-3 signaling were carried out in brain tissue, where the expression of D2R and DISC1 was confirmed (11,89,99). At least to our knowledge, there are no studies of D2R-mediated Akt/GSK-3 signaling in HEK-293T cells. Furthermore, there is no evidence indicating the existence of endogenous DISC1 in HEK-293T cells. […] The intensity of phosphor-GSK-3α Ser-21 and […] binding was quantified by densitometry (software: AIS Imaging Research Inc) (FIG. 1B). […] acted as a loading control in this experiment. […]
Background: In western blotting, separated proteins are transferred to a membrane and probed.

The next assay deals with DISC1CT. As to the kind of experiment: In vitro binding assay with [35S]-DISC1CT probe. To be noted: glutathione beads with GST-fusion protein, autoradiography. The procedure:
(§1) To construct GST-fusion proteins encoding truncated D2113, cDNA fragments were amplified by PCR with specific primers. All 5′ and 3′ oligonucleotides incorporated BamH1 site (GGATCC) and Xho1 sites (CTCGAG), respectively, to facilitate subcloning into vector pGEX-4T3 (for GST-fusion protein construction). GST-fusion proteins were prepared from bacterial lysates as described by the manufacturer (Amersham). To confirm appropriate splice fusion and the absence of spurious PCR generated nucleotide errors, all constructs were resequenced. For in vitro binding assays, the probes were made with DISC1-NT or DISC1-CT subcloned into mammalian expression vector pCDNA3 using TNT® T7 Quick Coupled Transcription/Translation System (Promega, Madison, Wis.) and [35S] methionine (PerkinElmer, Waltham, Mass.). Glutathione beads carrying 20 μg GST-fusion proteins of D2IL3 or GST alone were incubated at room temperature for 1 hour with [35S] methionine-labeled […] probe, respectively. The beads were then washed six times with PBS containing 0.1-0.5% (V/V) Triton X-100 and eluted with 10 mM glutathione elution buffer. Eluates were separated by SDS-PAGE and visualized by autoradiography using BioMax (Kodak) film.

For another assay, the system named is DISC1NT. Kind of assay: In vitro binding assay with [35S]-DISC1NT probe. To be noted: glutathione beads with GST-fusion protein, autoradiography. On the procedure: as §1
DISC1NT, sequence (Q9NRI5 1-75 limits assumed): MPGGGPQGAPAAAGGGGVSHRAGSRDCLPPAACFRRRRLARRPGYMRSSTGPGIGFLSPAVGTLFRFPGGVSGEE
Another assay addresses T1, DISC1 (Rattus norvegicus, UniProt Q810H6).
T1 construct: from tissue; host or cells: rat striatum, solubilized
T1 sequence (Q810H6 1-846): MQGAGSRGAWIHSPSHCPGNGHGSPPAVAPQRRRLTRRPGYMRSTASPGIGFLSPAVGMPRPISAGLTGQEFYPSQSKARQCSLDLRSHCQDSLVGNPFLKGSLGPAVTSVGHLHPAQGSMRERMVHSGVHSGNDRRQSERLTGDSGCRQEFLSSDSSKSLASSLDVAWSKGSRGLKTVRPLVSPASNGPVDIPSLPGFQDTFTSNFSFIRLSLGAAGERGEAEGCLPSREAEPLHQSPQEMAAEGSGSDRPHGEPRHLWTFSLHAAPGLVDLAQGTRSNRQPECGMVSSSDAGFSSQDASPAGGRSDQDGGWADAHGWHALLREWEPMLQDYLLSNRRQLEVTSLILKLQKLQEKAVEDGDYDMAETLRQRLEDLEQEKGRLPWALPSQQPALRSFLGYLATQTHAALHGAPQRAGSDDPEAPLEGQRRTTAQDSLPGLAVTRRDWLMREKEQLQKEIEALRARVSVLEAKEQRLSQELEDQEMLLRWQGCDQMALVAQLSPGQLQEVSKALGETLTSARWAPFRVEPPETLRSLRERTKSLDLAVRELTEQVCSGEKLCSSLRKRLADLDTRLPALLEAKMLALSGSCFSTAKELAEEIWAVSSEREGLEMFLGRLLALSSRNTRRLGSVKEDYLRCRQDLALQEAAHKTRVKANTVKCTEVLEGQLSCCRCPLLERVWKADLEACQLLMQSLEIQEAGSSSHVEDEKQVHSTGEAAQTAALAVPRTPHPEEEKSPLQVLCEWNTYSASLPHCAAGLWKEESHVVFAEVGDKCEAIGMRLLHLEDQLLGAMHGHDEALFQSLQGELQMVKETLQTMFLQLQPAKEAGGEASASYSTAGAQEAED
Kind of assay: Affinity purification (pull-down) of DISC1 from solubilized striatal tissue by GST fusion proteins of D2R fragments. The conditions noted are these: GST fusion protein. The format is binding. The source says:
(A) Co-immunoprecipitation of DISC1 by D2 antibody in rat striatal tissue.
This method uses GST fusion proteins encoding the fragments of a test protein to affinity purify other proteins that may form complexes with the test protein in tissue from a specific brain region. Since DISC1 is an intracellular protein, we made GST-fusion proteins encoding two intracellular regions of D2R: the carboxyl tail (CT) of D2R (D2CT: T428-C443) and the third intracellular loop ([…]) of D2R (D2IL3: K211-Q373). Many dopamine receptor interacting proteins have been identified that interact with either the CT or the IL3 region of dopamine receptors (94). […] GST fusion proteins encoding these two fragments were made and used in the affinity purification experiment. […] Thus, we concluded that D2IL3-1-1 (SEQ ID NO:1) comprises the site for D2-DISC1 interaction.

Assay [2] relates to D2-DISC1 interaction. As to the kind of experiment: Co-immunoprecipitation of D2-DISC1 after ICV administration of peptide. The conditions noted are these: administered via ICV; data not shown. It is filed as in vivo, rat. The source says:
PPI of the acoustic startle reflex is a sensorimotor gating process known to be deficient in a number of neurologic and psychiatric conditions including, but not limited to schizophrenia, Huntington's disease, Tourette's syndrome, and obsessive compulsive disorder (OCD). PPI can be disrupted by the dopamine DI/D2R agonist apomorphine in rats (111). […] Accordingly, if D2-DISC1 interaction plays an important role in the D2R-mediated reduction of phosphorylation of GSK-3α/β, disruption of the D2R-DISC1 interaction should reverse D2R-associated behaviours such as PPI deficit. […] These effects could not be explained in terms of altered startle reactivity (data not shown). The ability of the TAT-D2pep (administered via ICV) to disrupt the D2-DISC1 interaction was confirmed in co-immunoprecipitation experiments (data not shown).

Assay [3] deals with D2-DISC1 interaction. As to the kind of experiment: Apomorphine-induced disruption of pre-pulse inhibition (PPI) of the acoustic startle reflex in rats. It is filed as in vivo, rat. To be noted: rats. From the text: PPI of the acoustic startle reflex is a sensorimotor gating process known to be deficient in a number of neurologic and psychiatric conditions including, but not limited to schizophrenia, Huntington's disease, Tourette's syndrome, and obsessive compulsive disorder (OCD).
D2-DISC1 interaction, sequence (P61169 whole entry, one chain of several): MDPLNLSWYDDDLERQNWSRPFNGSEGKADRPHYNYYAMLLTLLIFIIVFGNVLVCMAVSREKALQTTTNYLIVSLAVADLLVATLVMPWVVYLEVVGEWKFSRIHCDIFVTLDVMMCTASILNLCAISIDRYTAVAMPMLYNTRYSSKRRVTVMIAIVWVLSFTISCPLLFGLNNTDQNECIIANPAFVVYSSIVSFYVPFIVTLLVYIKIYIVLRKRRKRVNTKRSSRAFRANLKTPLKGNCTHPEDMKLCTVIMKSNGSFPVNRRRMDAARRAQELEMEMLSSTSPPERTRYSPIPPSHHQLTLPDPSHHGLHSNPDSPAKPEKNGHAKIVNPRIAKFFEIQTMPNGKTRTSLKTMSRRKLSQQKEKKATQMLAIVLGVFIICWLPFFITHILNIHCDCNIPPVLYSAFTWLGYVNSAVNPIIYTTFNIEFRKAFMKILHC

Assay [4] addresses T2, Disrupted-in-schizophrenia-1 (DISC1), endogenous, in solubilized rat striatal tissue (rat, UniProt Q810H6 1-846, limits assumed).
T2 construct: Endogenous protein in a tissue extract
T2 sequence (looked up): T1 sequence (Q810H6 1-846)
Kind of assay: co-immunoprecipitation from rat striatal tissue with D1R antibody (data not shown).

Consider five molecules from US20120093822A1, “DOPAMINE D2 RECEPTOR-DISC1 INTERACTION, COMPOSITIONS AND METHODS FOR MODULATING SAME” (Centre Forr Addiction And Mental Health, priority 2009, published 2012).

“Also recorded” adds a separate entry of the source. Where no end group is shown, it is not given here.

`N[C@@]1(C(=O)O)CS(=O)(=O)[C@H]2[C@H](C(=O)O)[C@H]21` [LY404,039]: in assay [1], the “Clinical effectiveness in schizophrenia” value is “significantly effective”.
With `NCCc1ccc(O)c(O)c1` [dopamine], the “Phosphorylation of GSK3α/β” value is “significantly decreased” in the assay on GSK-3α/β phosphorylation (HEK-293T cells co-expressing D2R and DISC1, 10 μM dopamine, 30 min); “failed to alter” in the assay on GSK-3α/β phosphorylation (HEK-293T cells expressing D2R with pcDNA3, dopamine).
For “GST-D2IL3-1-1: GST fusion of D2IL3-1-1: K211-T225, KIYIVLRRRRKRVNT (SEQ ID NO:1) (also: GST fusion; UniProt P14416 211-225, looked up, fragment)”, in the assay on DISC1CT, the “Binding of [35S]-DISC1CT probe” value is reported as “not”. In the assay on DISC1NT, the “Binding of [35S]-DISC1NT probe” value was “bound”. Besides, the “Pull-down (precipitation) of DISC1” value with DISC1 is “Affinity pull-down of the DISC1; also recorded: recognizes and precipitates DISC1”.
Take “TAT-D2pep: TAT-D2 pep [K211-T225]: YGRKKRRQRRRKIYIVLRRRRKRVNT (SEQ ID NO:2) (TAT-[K211-T225]D2R fusion protein)”: the “Ability to disrupt the D2-DISC1 interaction (co-immunoprecipitation)” value in the assay with D2-DISC1 interaction [2] was “confirmed”. Further, in the assay on D2-DISC1 interaction [3] (apomorphine 0.3 mg/kg SC, peptide ICV (1 mM, 4 μl; 40 nmol), n=5 per group), the “Effect on apomorphine-induced disruption of PPI” value is “completely reversed the effects of apomorphine; also recorded: significantly reversed the disruption of PPI”. For the same molecule, the “Effect on basal PPI (degree of PPI without apomorphine)” value in the assay with D2-DISC1 interaction [3] (peptide ICV) is given as “without altering the degree of PPI”.

B1: Dopamine D1 receptor (D1R), endogenous, in rat striatal tissue (receptor, UniProt P18901 1-446, looked up)
chain: MAPNTSTMDEAGLPAERDFSFRILTACFLSLLILSTLLGNTLVCAAVIRFRHLRSKVTNFFVISLAVSDLLVAVLVMPWKAVAEIAGFWPLGPFCNIWVAFDIMCSTASILNLCVISVDRYWAISSPFQYERKMTPKAAFILISVAWTLSVLISFIPVQLSWHKAKPTWPLDGNFTSLEDTEDDNCDTRLSRTYAISSSLISFYIPVAIMIVTYTSIYRIAQKQIRRISALERAAVHAKNCQTTAGNGNPVECAQSESSFKMSFKRETKVLKTLSVIMGVFVCCWLPFFISNCMVPFCGSEETQPFCIDSITFDVFVWFGWANSSLNPIIYAFNADFQKAFSTLLGCYRLCPTTNNAIETVSINNNGAVVFSSHHEPRGSISKDCNLVYLIPHAVGSSEDLKKEEAGGIAKPLEKLSPALSVILDYDTDVSLEKIQPVTHSGQHST
As for B1, the binding result in assay [4] is on record as “no binding”.
